Measurements reported in PubChem BioAssay AID1259407 (Chemical Carcinogenesis Research Information System (CCRIS), 2018).
Calls of active or inactive are those of the source. The rule behind the calls is not given here.

System: CCRIS mutagenicity, Ames/micronucleus/aberration tests
Assay: CCRIS mutagenicity studies
[1] = Test System: AMES SALMONELLA TYPHIMURIUM, Strain/Indicator: TA100, Metabolic Activation: NONE, Method: PREINCUBATION
[2] = Test System: AMES SALMONELLA TYPHIMURIUM, Strain/Indicator: TA98, Metabolic Activation: NONE, Method: STANDARD PLATE

For `CCCCOCCCC`, the mutagenic call (Test System: AMES SALMONELLA TYPHIMURIUM, Strain/Indicator: TA97, Metabolic Activation: HAMSTER, LIVER, S-9, AROCLOR 1254 (10%), Method: PREINCUBATION) was “inactive; negative”, the mutagenic call (Test System: AMES SALMONELLA TYPHIMURIUM, Strain/Indicator: TA97, Metabolic Activation: HAMSTER, LIVER, S-9, AROCLOR 1254 (30%), Method: PREINCUBATION) was “inactive; negative” and the mutagenic call (Test System: AMES SALMONELLA TYPHIMURIUM, Strain/Indicator: TA97, Metabolic Activation: NONE, Method: PREINCUBATION) was “inactive; negative”. The mutagenic call (Test System: AMES SALMONELLA TYPHIMURIUM, Strain/Indicator: TA97, Metabolic Activation: RAT, LIVER, S-9, AROCLOR 1254 (10%), Method: PREINCUBATION) was “inactive; negative”, the mutagenic call (Test System: AMES SALMONELLA TYPHIMURIUM, Strain/Indicator: TA97, Metabolic Activation: RAT, LIVER, S-9, AROCLOR 1254 (30%), Method: PREINCUBATION) was “inactive; negative” and the mutagenic call (Test System: AMES SALMONELLA TYPHIMURIUM, Strain/Indicator: TA98, Metabolic Activation: HAMSTER, LIVER, S-9, AROCLOR 1254 (10%), Method: PREINCUBATION) was “inactive; negative”. The mutagenic call (Test System: AMES SALMONELLA TYPHIMURIUM, Strain/Indicator: TA98, Metabolic Activation: HAMSTER, LIVER, S-9, AROCLOR 1254 (30%), Method: PREINCUBATION) was “inactive; negative”, the mutagenic call (Test System: AMES SALMONELLA TYPHIMURIUM, Strain/Indicator: TA98, Metabolic Activation: NONE, Method: PREINCUBATION) was “inactive; negative” and the mutagenic call (Test System: AMES SALMONELLA TYPHIMURIUM, Strain/Indicator: TA98, Metabolic Activation: RAT, LIVER, S-9, AROCLOR 1254 (10%), Method: PREINCUBATION) was “inactive; negative”. The mutagenic call (Test System: AMES SALMONELLA TYPHIMURIUM, Strain/Indicator: TA98, Metabolic Activation: RAT, LIVER, S-9, AROCLOR 1254 (30%), Method: PREINCUBATION) was “inactive; negative”, the mutagenic call (Test System: AMES SALMONELLA TYPHIMURIUM, Strain/Indicator: TA100, Metabolic Activation: HAMSTER, LIVER, S-9, AROCLOR 1254 (10%), Method: PREINCUBATION) was “inactive; negative” and the mutagenic call (Test System: AMES SALMONELLA TYPHIMURIUM, Strain/Indicator: TA100, Metabolic Activation: HAMSTER, LIVER, S-9, AROCLOR 1254 (30%), Method: PREINCUBATION) was “inactive; negative”. The mutagenic call [1] was “inactive; negative”, the mutagenic call (Test System: AMES SALMONELLA TYPHIMURIUM, Strain/Indicator: TA100, Metabolic Activation: RAT, LIVER, S-9, AROCLOR 1254 (10%), Method: PREINCUBATION) was “inactive; negative” and the mutagenic call (Test System: AMES SALMONELLA TYPHIMURIUM, Strain/Indicator: TA100, Metabolic Activation: RAT, LIVER, S-9, AROCLOR 1254 (30%), Method: PREINCUBATION) was “inactive; negative”. For the same compound, the mutagenic call (Test System: AMES SALMONELLA TYPHIMURIUM, Strain/Indicator: TA1535, Metabolic Activation: HAMSTER, LIVER, S-9, AROCLOR 1254 (10%), Method: PREINCUBATION) was “inactive; negative”, the mutagenic call (Test System: AMES SALMONELLA TYPHIMURIUM, Strain/Indicator: TA1535, Metabolic Activation: HAMSTER, LIVER, S-9, AROCLOR 1254 (30%), Method: PREINCUBATION) was “inactive; negative” and the mutagenic call (Test System: AMES SALMONELLA TYPHIMURIUM, Strain/Indicator: TA1535, Metabolic Activation: NONE, Method: PREINCUBATION) was “inactive; negative”. The mutagenic call (Test System: AMES SALMONELLA TYPHIMURIUM, Strain/Indicator: TA1535, Metabolic Activation: RAT, LIVER, S-9, AROCLOR 1254 (10%), Method: PREINCUBATION) was “inactive; negative” and the mutagenic call (Test System: AMES SALMONELLA TYPHIMURIUM, Strain/Indicator: TA1535, Metabolic Activation: RAT, LIVER, S-9, AROCLOR 1254 (30%), Method: PREINCUBATION) was “inactive; negative”.

For `CCCC/C=C/C=O`, the mutagenic call [1] was “inactive; negative”, the mutagenic call (Test System: AMES SALMONELLA TYPHIMURIUM, Strain/Indicator: TA100, Metabolic Activation: NONE, Method: PREINCUBATION (THREEFOLD CELL DENSITY)) was “active; positive” and the mutagenic call (Test System: AMES SALMONELLA TYPHIMURIUM, Strain/Indicator: TA100, Metabolic Activation: RAT, LIVER, S-9, AROCLOR 1254, Method: PREINCUBATION) was “inactive; negative”. For the same compound, the mutagenic call (Test System: AMES SALMONELLA TYPHIMURIUM, Strain/Indicator: TA100, Metabolic Activation: RAT, LIVER, S-9, AROCLOR 1254, Method: PREINCUBATION (THREEFOLD CELL DENSITY)) was “inactive; negative”, the mutagenic call (Test System: CHINESE HAMSTER V-79, Strain/Indicator: V-79/6-THIOGUANINE, Metabolic Activation: NONE, Method: STANDARD PLATE) was “active; positive” and the mutagenic call (Test System: CHINESE HAMSTER V-79, Strain/Indicator: V-79/OUABAIN, Metabolic Activation: NONE, Method: STANDARD PLATE) was “active; positive”.

`Nc1ccc(CC(=O)O)cc1` was tested, and the mutagenic call [2] was “inactive; negative” and the mutagenic call (Test System: AMES SALMONELLA TYPHIMURIUM, Strain/Indicator: TA98, Metabolic Activation: RAT, LIVER, S-9, Method: STANDARD PLATE) was “active; positive”.

For `COc1ccccc1NCSC`, the mutagenic call (Test System: AMES SALMONELLA TYPHIMURIUM, Strain/Indicator: TA98, Metabolic Activation: NONE, Method: SPOT TEST) was “inactive; negative”, the mutagenic call (Test System: AMES SALMONELLA TYPHIMURIUM, Strain/Indicator: TA98, Metabolic Activation: RAT, LIVER, S-9, AROCLOR 1254, Method: SPOT TEST) was “active; positive” and the mutagenic call (Test System: AMES SALMONELLA TYPHIMURIUM, Strain/Indicator: TA100, Metabolic Activation: NONE, Method: SPOT TEST) was “active; positive”. The mutagenic call (Test System: AMES SALMONELLA TYPHIMURIUM, Strain/Indicator: TA100, Metabolic Activation: RAT, LIVER, S-9, AROCLOR 1254, Method: SPOT TEST) was “active; positive”, the mutagenic call (Test System: AMES SALMONELLA TYPHIMURIUM, Strain/Indicator: TA102, Metabolic Activation: NONE, Method: SPOT TEST) was “inactive; negative” and the mutagenic call (Test System: AMES SALMONELLA TYPHIMURIUM, Strain/Indicator: TA102, Metabolic Activation: RAT, LIVER, S-9, AROCLOR 1254, Method: SPOT TEST) was “active; positive”.

In the case of `CC(=O)C1(c2ccccc2)CCNCC1`, the mutagenic call (Test System: AMES SALMONELLA TYPHIMURIUM, Strain/Indicator: TA98, Metabolic Activation: HAMSTER, LIVER, S-9, AROCLOR 1254, Method: STANDARD PLATE) is reported as “inactive; negative”, the mutagenic call [2] is reported as “inactive; negative” and the mutagenic call (Test System: AMES SALMONELLA TYPHIMURIUM, Strain/Indicator: TA98, Metabolic Activation: RAT, LIVER, S-9, AROCLOR 1254, Method: STANDARD PLATE) is reported as “inactive; negative”. For the same compound, the mutagenic call (Test System: AMES SALMONELLA TYPHIMURIUM, Strain/Indicator: TA100, Metabolic Activation: HAMSTER, LIVER, S-9, AROCLOR 1254, Method: STANDARD PLATE) was “inactive; negative”, the mutagenic call (Test System: AMES SALMONELLA TYPHIMURIUM, Strain/Indicator: TA100, Metabolic Activation: NONE, Method: STANDARD PLATE) was “inactive; negative” and the mutagenic call (Test System: AMES SALMONELLA TYPHIMURIUM, Strain/Indicator: TA100, Metabolic Activation: RAT, LIVER, S-9, AROCLOR 1254, Method: STANDARD PLATE) was “inactive; negative”. The mutagenic call (Test System: AMES SALMONELLA TYPHIMURIUM, Strain/Indicator: TA1535, Metabolic Activation: HAMSTER, LIVER, S-9, AROCLOR 1254, Method: STANDARD PLATE) was “inactive; negative”, the mutagenic call (Test System: AMES SALMONELLA TYPHIMURIUM, Strain/Indicator: TA1535, Metabolic Activation: NONE, Method: STANDARD PLATE) was “inactive; negative” and the mutagenic call (Test System: AMES SALMONELLA TYPHIMURIUM, Strain/Indicator: TA1535, Metabolic Activation: RAT, LIVER, S-9, AROCLOR 1254, Method: STANDARD PLATE) was “inactive; negative”. For the same compound, the mutagenic call (Test System: AMES SALMONELLA TYPHIMURIUM, Strain/Indicator: TA1537, Metabolic Activation: HAMSTER, LIVER, S-9, AROCLOR 1254, Method: STANDARD PLATE) was “inactive; negative”, the mutagenic call (Test System: AMES SALMONELLA TYPHIMURIUM, Strain/Indicator: TA1537, Metabolic Activation: NONE, Method: STANDARD PLATE) was “inactive; negative” and the mutagenic call (Test System: AMES SALMONELLA TYPHIMURIUM, Strain/Indicator: TA1537, Metabolic Activation: RAT, LIVER, S-9, AROCLOR 1254, Method: STANDARD PLATE) was “inactive; negative”. The mutagenic call (Test System: AMES SALMONELLA TYPHIMURIUM, Strain/Indicator: TA1538, Metabolic Activation: HAMSTER, LIVER, S-9, AROCLOR 1254, Method: STANDARD PLATE) was “inactive; negative”, the mutagenic call (Test System: AMES SALMONELLA TYPHIMURIUM, Strain/Indicator: TA1538, Metabolic Activation: NONE, Method: STANDARD PLATE) was “inactive; negative” and the mutagenic call (Test System: AMES SALMONELLA TYPHIMURIUM, Strain/Indicator: TA1538, Metabolic Activation: RAT, LIVER, S-9, AROCLOR 1254, Method: STANDARD PLATE) was “inactive; negative”. For the same compound, the mutagenic call (Test System: MOUSE LYMPHOMA, Strain/Indicator: L5178Y (TK+/TK-), Metabolic Activation: NONE, Method: SUSPENSION/PLATE) was “inactive; negative. reevaluation of results: negative” and the mutagenic call (Test System: MOUSE LYMPHOMA, Strain/Indicator: L5178Y (TK+/TK-), Metabolic Activation: RAT, LIVER, S-9, AROCLOR 1254, Method: SUSPENSION/PLATE) was “inactive; negative. reevaluation of results: inconclusive”.

`O=c1cccc2cc(O)c(O)c(O)c2c1O` was tested, and the mutagenic call (Test System: AMES SALMONELLA TYPHIMURIUM, Strain/Indicator: TA2638, Metabolic Activation: S-9, Method: STANDARD PLATE) was “inactive; negative”.
